From patent publication US9243002B2, “Tetracyclic heterocycle compounds and methods of use thereof for the treatment of hepatitis C” (priority 2013, dated 2016) come the findings set out here.

Read-outs that look alike come from different tables or passages of the source.

The test system of one assay is HCV genotype 1a replicon. As to the kind of experiment: HCV replicon assay, genotype 1a (cell ELISA for NS3/4A). The format is cell-based, hepatitis C virus. The method, then:
(§1) Measurement of inhibition by compounds was performed using the HCV replicon system. Several different replicons encoding different HCV genotypes or mutations were used. In addition, potency measurements were made using different formats of the replicon assay, including different ways of measurements and different plating formats. See Jan M. Vrolijk et al., A replicons-based bioassay for the measurement of interferons in patients with chronic hepatitis C, 110 J. VIROLOGICAL METHODS 201 (2003); Steven S. Carroll et al., Inhibition of Hepatitis C Virus RNA Replication by 2′-Modified Nucleoside Analogs, 278 (14) J. BIOLOGICAL CHEMISTRY 11979 (2003). However, the underlying principles are common to all of these determinations, and are outlined below.
(§2) Stable neomycin phosphotransferase encoding replicons-harboring cell lines were used, so all cell lines were maintained under G418 selection prior to the assay. Potency was deteremined using a cell ELISA assay with an antibody to the replicons encoded NS3/4a protease. See Caterina Trozzi et al., In Vitro Selection and Characterization of Hepatitis C Virus Serine Protease Variants Resistant to an Active-Site Peptide Inhibitor, 77 (6) J. Virol. 3669 (2003). To initiate an assay, replicon cells were plated in the presence of a dilution series of test compound in the absence of G418. Typically, the assays were performed in a 96-well plate formate for manual operation, or a 384-well plate format for automated assay. Replicon cells and compound were incubated for 96 hours. At the end of the assay, cells were washed free of media and compound, and the cells were then lysed. RNA was quantified indirectly through detection of replicon-encoded NS3/4A protein levels, through an ELISA-based assay with an antibody specific for NS3/4A. IC50 determinations were calculated as a percentage of a DMSO control by fitting the data to a four-parameter fit function and the data obtained for genotypes 1a and 1b using this method is provided in the table below.
(In general: A replicon is a self-replicating genome or part of one, used to study replication in cells.)

The test system of a further assay is HCV genotype 1b replicon. Description: HCV replicon assay, genotype 1b (cell ELISA for NS3/4A). The class given is cell-based, hepatitis C virus. As for the experimental part:
as §1, §2

Where [1] appears, read: read-out: 1a IC50, genotype 1a replicon cells, 96 hours incubation, NS3/4A ELISA.
Setting [2] is: Hepatitis C virus, 96 h, read-out: 1b IC50 (nM), genotype 1b replicon cells, 96 hours incubation, NS3/4A ELISA.
[3] abbreviates: read-out: 1b IC50, genotype 1b replicon cells, 96 hours incubation, NS3/4A ELISA.
[4] abbreviates: genotype 1a replicon cells, 96 hours incubation, NS3/4A ELISA, read-out: 1a IC50.
[5] abbreviates: genotype 1b replicon cells, 96 hours incubation, NS3/4A ELISA, read-out: 1b IC50.
Where [6] appears, read: Hepatitis C virus, 96 h, read-out: 1a IC50 (nM), genotype 1a replicon cells, 96 hours incubation, NS3/4A ELISA.

Regarding `CNC(=O)c1c(-c2ccc(F)cc2)oc2cc(N(C)S(C)(=O)=O)c(-c3cc4c(cn3)CC(C)n3c-4cc4c(F)cccc43)cc12` (single isomer, unassigned) [Example 41, (R or S)-5-(11-fluoro-6-methyl-5,6-dihydroindolo[2,1-a][2,6]naphthyridin-2-yl)-2-(4-fluorophenyl)-N-methyl-6-(N-methylmethylsulfonamido)benzofuran-3-carboxamide], the IC50 worked out at 19.3 nM with HCV genotype 1a replicon (setting [1]) and 6.33 nM with HCV genotype 1b replicon (setting [2]).

With `CNC(=O)c1c(-c2ccc(F)cc2)oc2cc(N(C)S(C)(=O)=O)c(-c3cc4c(cn3)CC(C)n3c-4cc4c(F)cccc43)cc12` (single isomer, unassigned) [Example 42, (S or R)-5-(11-fluoro-6-methyl-5,6-dihydroindolo[2,1-a][2,6]naphthyridin-2-yl)-2-(4-fluorophenyl)-N-methyl-6-(N-methylmethylsulfonamido)benzofuran-3-carboxamide], the IC50 with HCV genotype 1a replicon (setting [1]) is 3.1 nM; in the assay on HCV genotype 1b replicon (setting [3]) it was 5.47 nM.

Consider `CNC(=O)c1c(-c2ccc(F)cc2F)oc2cc(N(C)S(C)(=O)=O)c(-c3ccc4c(n3)-c3cc5c(F)cccc5n3C(CO)C4)cc12` (single isomer, unassigned) [Example 50, (R or S)-2-(2,4-difluorophenyl)-5-(1.1-fluoro-6-(hydroxymethyl)-5,6-dihydroindolo[1,2-h][1,7]naphthyridin-2-yl)-N-methyl-6-(N-methylmethylsulfonamido)benzofuran-3-carboxamide], for which the IC50 in the assay with HCV genotype 1a replicon (setting [4]) was 1.15 nM; in the assay with HCV genotype 1b replicon (setting [5]) it was 3.36 nM.

As to `CNC(=O)c1c(-c2ccc(F)cc2F)oc2cc(N(C)S(C)(=O)=O)c(-c3ccc4c(n3)-c3cc5c(F)cccc5n3C(CO)C4)cc12` (single isomer, unassigned) [Example 51, (S or R)-2-(2,4-difluorophenyl)-5-(11-fluoro-6-(hydroxymethyl)-5,6-dihydroindolo[1,2-h][1,7]naphthyridin-2-yl)-N-methyl-6-(N-methylmethylsulfonamido)benzofuran-3-carboxamide], the IC50 was 4.49 nM in the assay with HCV genotype 1a replicon (setting [6]) and 3.42 nM with HCV genotype 1b replicon (setting [2]).

Consider `CNC(=O)c1c(-c2ccc(F)cc2)oc2cc(N(C)S(C)(=O)=O)c(-c3ccc4c(n3)-c3cc5c(F)cccc5n3C(CS(C)(=O)=O)C4)cc12` (single isomer, unassigned) [Example 56, (R or S)-5-(11-fluoro-6-((methylsulfonyl)methyl)-5,6-dihydroindolo[1,2-h][1,7]naphthyridin-2-yl)-2-(4-fluorophenyl)-N-methyl-6-(N-methylmethylsulfonamido)benzofuran-3-carboxamide], for which the IC50 with HCV genotype 1a replicon (setting [1]) is 3.4 nM; in the assay with HCV genotype 1b replicon (setting [2]) it was 2 nM.

On to `CNC(=O)c1c(-c2ccc(F)cc2)oc2cc(N(C)S(C)(=O)=O)c(-c3ccc4c(n3)-c3cc5c(F)cccc5n3C(CS(C)(=O)=O)C4)cc12` (single isomer, unassigned) [Example 57, (S or R)-5-(11-fluoro-6-((methylsulfonyl)methyl)-5,6-dihydroindolo[1,2-h][1,7]naphthyridin-2-yl)-2-(4-fluorophenyl)-N-methyl-6-(N-methylmethylsulfonamido)benzofuran-3-carboxamide], for which the results for the IC50 in the assay with HCV genotype 1a replicon (setting [1]) and in the assay with HCV genotype 1b replicon (setting [3]) were 8.16 nM and 3.39 nM, respectively.

Regarding `CNC(=O)c1c(-c2ccc(F)cc2)oc2cc(N(C)S(C)(=O)=O)c(-c3cc4c(cn3)C(C)Cn3c-4cc4c(F)cccc43)cc12` (single isomer, unassigned) [Example 60, (R or S)-5-(11-fluoro-5-methyl-5,6-dihydroindolo[2,1-a][2,6]naphthyridin-2-yl)-2-(4-fluorophenyl)-N-methyl-6-(N-methylmethylsulfonamido)benzofuran-3-carboxamide], the figures for the IC50 with HCV genotype 1a replicon (setting [1]) and in the assay with HCV genotype 1b replicon (setting [2]) were 5 nM and 10.1 nM, respectively.

Turning to `CNC(=O)c1c(-c2ccc(F)cc2)oc2cc(N(C)S(C)(=O)=O)c(-c3cc4c(cn3)C(C)Cn3c-4cc4c(F)cccc43)cc12` (single isomer, unassigned) [Example 61, (S or R)-5-(11-fluoro-5-methyl-5,6-dihydroindolo[2,1-a][2,6]naphthyridin-2-yl)-2-(4-fluorophenyl)-N-methyl-6-(N-methylmethylsulfonamido)benzofuran-3-carboxamide], the IC50 in the assay on HCV genotype 1a replicon (setting [1]) came out at 2.27 nM; in the assay with HCV genotype 1b replicon (setting [3]), 7.8 nM.

With `CNC(=O)c1c(-c2ccc(C(F)(F)F)cc2)oc2cc(N(C)S(C)(=O)=O)c(-c3ccc4c(n3)-c3cc5c(F)cccc5n3CC4)cc12` [Example 1, 5-(11-fluoro-5,6-dihydroindolo[1,2-h][1,7]naphthyridin-2-yl)-N-methyl-6-(N-methylmethylsulfonamido)-2-(4-(trifluoromethyl)phenyl)benzofuran-3-carboxamide], the IC50 turned out to be 3.78 nM in the assay on HCV genotype 1a replicon (setting [4]) and 4.67 nM in the assay with HCV genotype 1b replicon (setting [5]).

For the compound `CNC(=O)c1c(-c2ccc(OC(F)F)nc2)oc2cc(N(C)S(C)(=O)=O)c(-c3ccc4c(n3)-c3cc5c(F)cccc5n3CC4)cc12` [Example 2], the IC50 in the assay with HCV genotype 1a replicon (setting [6]) amounted to 2.09 nM; in the assay with HCV genotype 1b replicon (setting [2]), 3.9 nM.

For `CNC(=O)c1c(-c2ccc(C(F)F)nc2)oc2cc(N(C)S(C)(=O)=O)c(-c3ccc4c(n3)-c3cc5c(F)cccc5n3CC4)cc12` [Example 3], the IC50 amounted to 7.94 nM in the assay on HCV genotype 1a replicon (setting [6]) and 6.69 nM in the assay with HCV genotype 1b replicon (setting [2]).

Take `CNC(=O)c1c(-c2ccc(OCC(F)(F)F)nc2)oc2cc(N(C)S(C)(=O)=O)c(-c3ccc4c(n3)-c3cc5c(F)cccc5n3CC4)cc12` [Example 4]: the IC50 with HCV genotype 1a replicon (setting [6]) was found to be 6.99 nM; in the assay on HCV genotype 1b replicon (setting [2]), 7.3 nM.

Consider `CNC(=O)c1c(-c2ccc(OC3CC3)nc2)oc2cc(N(C)S(C)(=O)=O)c(-c3ccc4c(n3)-c3cc5c(F)cccc5n3CC4)cc12` [Example 5], for which the IC50 with HCV genotype 1a replicon (setting [6]) amounted to 3.86 nM; in the assay on HCV genotype 1b replicon (setting [2]), 2.3 nM.

Take `CNC(=O)c1c(-c2ccc(C3CC3)nc2)oc2cc(N(C)S(C)(=O)=O)c(-c3ccc4c(n3)-c3cc5c(F)cccc5n3CC4)cc12` [Example 6]: the figures for the IC50 in the assay with HCV genotype 1a replicon (setting [6]) and in the assay with HCV genotype 1b replicon (setting [2]) were 16.8 nM and 10.2 nM, respectively.

Consider `CNC(=O)c1c(-c2ccc(C)nc2)oc2cc(N(C)S(C)(=O)=O)c(-c3ccc4c(n3)-c3cc5c(F)cccc5n3CC4)cc12` [Example 7], for which the IC50 in the assay with HCV genotype 1a replicon (setting [6]) came out at 17.6 nM; in the assay on HCV genotype 1b replicon (setting [2]), 6.79 nM.

Take `CNC(=O)c1c(-c2cnc3c(c2)OCCO3)oc2cc(N(C)S(C)(=O)=O)c(-c3ccc4c(n3)-c3cc5c(F)cccc5n3CC4)cc12` [Example 8]: the figures for the IC50 in the assay on HCV genotype 1a replicon (setting [6]) and with HCV genotype 1b replicon (setting [2]) were 580 nM and 122 nM, respectively.

Take `CCc1ccc(-c2oc3cc(N(C)S(C)(=O)=O)c(-c4ccc5c(n4)-c4cc6c(F)cccc6n4CC5)cc3c2C(=O)NC)cn1` [Example 9]: the values for the IC50 in the assay on HCV genotype 1a replicon (setting [6]) and in the assay with HCV genotype 1b replicon (setting [2]) were 38.2 nM and 31.2 nM, respectively.

Consider `CNC(=O)c1c(-c2ccc(F)cc2C)oc2cc(N(C)S(C)(=O)=O)c(-c3ccc4c(n3)-c3cc5c(F)cccc5n3CC4)cc12` [Example 10], for which the figures for the IC50 in the assay on HCV genotype 1a replicon (setting [6]) and with HCV genotype 1b replicon (setting [2]) were 9.44 nM and 10.7 nM, respectively.

Consider `CNC(=O)c1c(-c2ccc(C(C)C)nc2)oc2cc(N(C)S(C)(=O)=O)c(-c3ccc4c(n3)-c3cc5c(F)cccc5n3CC4)cc12` [Example 11], for which the IC50 with HCV genotype 1a replicon (setting [6]) is 2120 nM; with HCV genotype 1b replicon (setting [2]), 661 nM.

Take `CNC(=O)c1c(-c2ccc(F)cc2Cl)oc2cc(N(C)S(C)(=O)=O)c(-c3ccc4c(n3)-c3cc5c(F)cccc5n3CC4)cc12` [Example 12]: the figures for the IC50 with HCV genotype 1a replicon (setting [6]) and with HCV genotype 1b replicon (setting [2]) were 4.59 nM and 10.6 nM, respectively.

Regarding `CNC(=O)c1c(-c2ccc(F)cc2C#N)oc2cc(N(C)S(C)(=O)=O)c(-c3ccc4c(n3)-c3cc5c(F)cccc5n3CC4)cc12` [Example 13], the IC50 stood at 17.3 nM in the assay with HCV genotype 1a replicon (setting [6]) and 16.5 nM in the assay with HCV genotype 1b replicon (setting [2]).

In the case of `CNC(=O)c1c(-c2cnc(C)c(F)c2)oc2cc(N(C)S(C)(=O)=O)c(-c3ccc4c(n3)-c3cc5c(F)cccc5n3CC4)cc12` [Example 14], the results for the IC50 in the assay on HCV genotype 1a replicon (setting [6]) and in the assay with HCV genotype 1b replicon (setting [2]) were 26.4 nM and 24.3 nM, respectively.

On to `CNC(=O)c1c(-c2ccc(F)nc2)oc2cc(N(C)S(C)(=O)=O)c(-c3ccc4c(n3)-c3cc5c(F)cccc5n3CC4)cc12` [Example 15], for which the IC50 in the assay on HCV genotype 1a replicon (setting [6]) is 3.41 nM; with HCV genotype 1b replicon (setting [2]), 5.09 nM.

Turning to `CNC(=O)c1c(C2CC2)oc2cc(N(C)S(C)(=O)=O)c(-c3ccc4c(n3)-c3cc5c(F)cccc5n3CC4)cc12` [Example 16], the IC50 with HCV genotype 1a replicon (setting [6]) was determined as 27 nM; in the assay on HCV genotype 1b replicon (setting [2]), 14.6 nM.

`CNC(=O)c1c(-c2ccnn2C(C)C)oc2cc(N(C)S(C)(=O)=O)c(-c3ccc4c(n3)-c3cc5c(F)cccc5n3CC4)cc12` [Example 17, 5-(11-fluoro-5,6-dihydroindolo[1,2-h][1,7]naphthyridin-2-yl)-2-(1-isopropyl-1H-pyrazol-5-yl)-N-methyl-6-(N-methylmethylsulfonamido)benzofuran-3-carboxamide]: the IC50 with HCV genotype 1a replicon (setting [6]) came to 373 nM; in the assay with HCV genotype 1b replicon (setting [2]) it was 197 nM.
